Reference: patent publication US20250257098A1, “NOVEL SST4 SELECTIVE AGONISTS AS NON-OPIOID ANALGESICS” (KØBENHAVNS UNIVERSITET, priority 2022, published 2025)

Key:
[1] = system: LPS-stimulated mouse macrophages; assay type: cell-based, BALB/c mice
[2] = target: T1, human somatostatin receptor SST1 (Homo sapiens, UniProt P30872); assay type: cell-based
T1 construct: expressed in transfected cells; host or cells: HTLA cells

[3] = system: model of chronic neuropathic pain (spared nerve injury, SNI); parameters: species or system C57BL/6NRj mice; details: mouse, in vivo
[4] = target: T2, human somatostatin receptor SST5 (Homo sapiens, UniProt P35346); assay type: cell-based
T2 construct: expressed in transfected cells; host or cells: HTLA cells

[5] = system: mouse model of post-surgical pain; parameters: species or system mice; details: in vivo
[6] = target: T3, human somatostatin receptor SST3 (Homo sapiens, UniProt P32745); assay type: cell-based
T3 construct: expressed in transfected cells; host or cells: HTLA cells

[7] = target: T4, human somatostatin receptor SST2 (Homo sapiens, UniProt P30874); assay type: cell-based
T4 construct: expressed in transfected cells; host or cells: HTLA cells

[8] = target: T5, human somatostatin receptor SST4 (Homo sapiens, UniProt P31391); assay type: cell-based
T5 construct: expressed in transfected cells; host or cells: HTLA cells
T5 sequence (P31391 whole entry): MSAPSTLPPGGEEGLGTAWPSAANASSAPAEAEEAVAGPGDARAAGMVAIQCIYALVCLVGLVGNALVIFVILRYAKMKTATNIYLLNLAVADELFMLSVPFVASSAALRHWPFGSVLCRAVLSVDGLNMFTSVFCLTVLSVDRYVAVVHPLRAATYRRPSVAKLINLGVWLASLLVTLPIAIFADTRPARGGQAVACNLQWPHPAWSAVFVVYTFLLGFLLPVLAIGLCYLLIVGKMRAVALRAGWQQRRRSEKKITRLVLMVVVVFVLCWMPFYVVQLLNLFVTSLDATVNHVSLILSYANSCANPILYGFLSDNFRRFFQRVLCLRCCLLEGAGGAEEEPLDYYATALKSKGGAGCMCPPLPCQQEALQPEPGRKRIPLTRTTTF

T4 sequence (P30874 whole entry): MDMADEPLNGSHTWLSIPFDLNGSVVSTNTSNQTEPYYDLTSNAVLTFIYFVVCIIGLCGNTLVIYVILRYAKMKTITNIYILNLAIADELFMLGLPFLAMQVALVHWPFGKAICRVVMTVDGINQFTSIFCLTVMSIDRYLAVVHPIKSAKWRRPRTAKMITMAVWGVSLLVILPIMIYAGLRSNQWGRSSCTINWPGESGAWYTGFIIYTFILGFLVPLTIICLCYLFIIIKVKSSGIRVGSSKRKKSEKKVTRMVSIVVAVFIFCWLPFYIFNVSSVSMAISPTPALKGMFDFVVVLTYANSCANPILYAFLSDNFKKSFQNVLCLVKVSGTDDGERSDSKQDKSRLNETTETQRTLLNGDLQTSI
T3 sequence (P32745 whole entry): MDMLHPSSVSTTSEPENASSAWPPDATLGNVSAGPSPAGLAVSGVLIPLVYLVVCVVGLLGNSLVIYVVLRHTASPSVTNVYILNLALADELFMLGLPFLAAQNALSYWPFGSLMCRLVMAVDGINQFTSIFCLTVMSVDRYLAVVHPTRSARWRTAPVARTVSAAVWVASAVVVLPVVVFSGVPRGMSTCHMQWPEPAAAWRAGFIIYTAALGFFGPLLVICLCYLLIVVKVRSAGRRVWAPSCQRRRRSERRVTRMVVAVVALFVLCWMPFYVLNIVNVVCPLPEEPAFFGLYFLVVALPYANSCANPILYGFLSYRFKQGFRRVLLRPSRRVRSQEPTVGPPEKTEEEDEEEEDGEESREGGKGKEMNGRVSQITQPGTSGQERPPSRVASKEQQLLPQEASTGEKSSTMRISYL
T2 sequence (P35346 whole entry): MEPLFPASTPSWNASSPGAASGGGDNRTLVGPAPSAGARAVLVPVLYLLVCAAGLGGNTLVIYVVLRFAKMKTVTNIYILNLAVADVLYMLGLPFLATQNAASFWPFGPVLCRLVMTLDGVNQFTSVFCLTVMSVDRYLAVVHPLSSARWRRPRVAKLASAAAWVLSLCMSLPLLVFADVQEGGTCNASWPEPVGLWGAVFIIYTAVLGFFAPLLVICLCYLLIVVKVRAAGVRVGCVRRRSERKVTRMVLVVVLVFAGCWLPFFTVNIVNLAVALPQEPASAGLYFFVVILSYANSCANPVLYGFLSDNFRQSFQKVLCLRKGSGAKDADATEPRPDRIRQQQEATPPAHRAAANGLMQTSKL
T1 sequence (P30872 whole entry): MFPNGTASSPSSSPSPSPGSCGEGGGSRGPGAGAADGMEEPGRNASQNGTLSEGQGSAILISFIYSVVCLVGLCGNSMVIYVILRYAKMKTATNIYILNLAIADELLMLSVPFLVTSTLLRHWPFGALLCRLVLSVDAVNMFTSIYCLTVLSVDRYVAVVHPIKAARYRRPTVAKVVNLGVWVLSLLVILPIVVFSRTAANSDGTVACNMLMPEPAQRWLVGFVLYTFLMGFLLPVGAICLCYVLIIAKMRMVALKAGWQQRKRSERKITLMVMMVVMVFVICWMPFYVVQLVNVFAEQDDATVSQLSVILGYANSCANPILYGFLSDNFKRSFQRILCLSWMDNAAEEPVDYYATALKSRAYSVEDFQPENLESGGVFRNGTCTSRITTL

Sequence: PVCWKFGCPL [HSH-109, PVCwKFGCOL]
- reduction of MCP1 levels [1]: ~47%
- reduction of TNFα levels [1]: ~62%
- apparent potency at SST1 [2]: low micromolar range
- reduction of mechanical hypersensitivity [3]: very robust reduction of mechanical hypersensitivity
- activation of SST5 [4]: did not significantly activate
- area under the curve larger than for Cont-Ro1 [5]: 39%
- duration of effect compared with Cont-Ro1 [5]: longer lasting
- duration of effect versus morphine positive control [5]: longer lasting than the morphine positive control
- effect level compared with Cont-Ro1 [5]: tendency for a higher effect level of HSH-109 over Cont-Ro1
- expected efficacy [5]: expected to be fully efficacious
- reduction of hypersensitivity [5]: robust reduction of hypersensitivity
- activation of SST3 [6]: did not significantly activate
- activation of SST2 [7]: did not significantly activate
- apparent potency at SST4 [8]: low nanomolar range
- potency compared with Cont-Ro1 [8]: more potent
- selectivity for SST4 compared with Cont-Ro1 [8]: more selective for SST4 than Cont-Ro1
